Test results reported in US20080114066A1, “Synergistic Effects Of Docosahexaenoic Acid (DHA) And Carotenoid Absorption Of Cognitive Function” (Trustees of Tufts College, priority 2005, published 2008).

Legend:
Type in all cases: in vivo, human
[1] = tested on: non-smoking women (60-80 years); assay: Verbal Fluency Test; conditions: group mean
From the text: (§1) Subjects: Fifty non-smoking women (60-80 years) were recruited from the general population for a 4 month supplementation study. All subjects underwent a screening examination that includes a medical history, a physical examination, and a routine blood clinical chemistry profile. Volunteers with any history or biochemical evidence of lactose intolerance, liver, kidney, or pancreatic disease, anemia, active bowel disease or resection, insulin-dependent diabetes, easy bruising or bleeding, bleeding disorders, hyperglyceridemia, hyperlipidproteinemia, or alcoholism were excluded from the study. Moreover, individuals taking mineral oil or medications suspected of interfering with fat-soluble vitamin absorption were excluded. Subjects using steroids or non-steroid anti-inflammatory drugs, or antihistamine drugs were excluded. […] Subjects were excluded if they have taken any nutrient supplement for 2 months or more before admission into the study or carotene supplements 6 months or more before the study. Smoking was not permitted during the course of the study.
Women were randomly assigned to one of four groups: Control (n=10), DHA (n=14, DHA 800 mg/d), lutein (n=12, lutein 12 mg/d), and lutein+DHA (n=14, lutein 12 mg/d; DHA 800 mg/d) (C, D, L, and LD, respectively). The supplement type was randomized. Subjects visited the Jean Mayer USDA Human Nutrition Research Center on Aging at Tufts University on days that supplements were distributed and blood obtained (0 mo-baseline, 2 mo, and 4 mo). Subjects were instructed to take the supplement with a nutritional energy drink (8 oz., Boost®, Mead Johnson Nutritionals) but were otherwise asked to not alter their diets. The diet of each subject was monitored with food frequency questionnaires (Block G, et al., A data-based approach to diet questionnaire design and testing. Am J Epidemiol, 1986. 24: p. 453-469) completed at baseline, 2 months and 4 months to be sure that there were no confounding changes in dietary intake. All subjects completed at least two sets of cognitive and mood self-report tests, at the beginning of the study, then at the end of the study, after four months of supplementation, at the Schepens Eye Research Institute. Compliance was by monitored by interview, compliance calendars and capsule count. Both the subjects and the experimenter were masked to the experimental groups. Blood samples were collected at baseline, 2 months and 4 months, and serum was separated from red blood cells (800×g, 10 minutes). Aliquots of serum are stored at −70° C. until analyzed. […]

[2] = tested on: non-smoking women (60-80 years); assay: Shopping List Task (memory test); conditions: group mean
From the text: as §1
(§2) Women were randomly assigned to one of four groups: Control (n=10), DHA (n=14, DHA 800 mg/d), lutein (n=12, lutein 12 mg/d), and lutein+DHA (n=14, lutein 12 mg/d; DHA 800 mg/d) (C, D, L, and LD, respectively). The supplement type was randomized. Subjects visited the Jean Mayer USDA Human Nutrition Research Center on Aging at Tufts University on days that supplements were distributed and blood obtained (0 mo-baseline, 2 mo, and 4 mo). Subjects were instructed to take the supplement with a nutritional energy drink (8 oz., Boost®, Mead Johnson Nutritionals) but were otherwise asked to not alter their diets. The diet of each subject was monitored with food frequency questionnaires (Block G, et al., A data-based approach to diet questionnaire design and testing. Am J Epidemiol, 1986. 24: p. 453-469) completed at baseline, 2 months and 4 months to be sure that there were no confounding changes in dietary intake. All subjects completed at least two sets of cognitive and mood self-report tests, at the beginning of the study, then at the end of the study, after four months of supplementation, at the Schepens Eye Research Institute. Compliance was by monitored by interview, compliance calendars and capsule count. Both the subjects and the experimenter were masked to the experimental groups. Blood samples were collected at baseline, 2 months and 4 months, and serum was separated from red blood cells (800×g, 10 minutes). Aliquots of serum are stored at −70° C. until analyzed. At baseline and 2 months, a two month supply of placebo supplements, DHA (800 mg/d, DHASCO, Martek Biological Sciences), lutein (12 mg/d plus 0.5 mg zeaxanthin, Kemin Foods), or lutein+DHA (12 mg/d and 800 mg/d, respectively and nutritional energy drink was provided. At baseline and 4 months, subjects visited the Schepens Eye Research Institute (Boston, Mass.) for testing of MP optical density (MPOD) and an ophthalmic exam. There were two visits at each time point.
(§3) Supplementation Protocol. Dietary supplements in capsule form were Lutein (12 mg/day) (Kemin Foods) and Docosahexaenoic Acid (DHASCO) (800 mg/day) (Martek Biological Sciences). Participants in each of the four supplementation groups were instructed to drink one can of a nutritional supplement daily (Boost Plus) (Mead Johnson) when taking their capsules. Subjects ingested their dietary supplements daily for a period of 4 months. Both the subjects and the experimenter were masked to the experimental groups.
(§4) Tests and Measurements. The battery of cognitive tests included tests of memory and processing speed or attention and a measure of self-reported mood. […] Early cognitive markers of the incidence of dementia and mortality: A longitudinal population-based study of the oldest old. International Journal of Geriatric Psychiatry, 12, 53-59; Payton, M., Riggs, K. M., Spiro III, A., Weiss, S. T. & Hu, H. (1998). […]

[3] = tested on: non-smoking women (60-80 years); assay: Digit Span Forward and Backward; conditions: group mean
From the text: as §1, §2, §3, §4

[4] = tested on: non-smoking women (60-80 years); assay: NES2 Mood Scales (self-reported mood); parameters: scale not given here; conditions: group mean
From the text: as §1, §2, §3, §4

[5] = tested on: non-smoking women (60-80 years); assay: Word List Memory Test; conditions: group mean
From the text: as §1, §2, §3, §4

[6] = tested on: non-smoking women (60-80 years); assay: NES2 Pattern Comparison (Pattern Recognition) Test; conditions: group mean
From the text: as §1, §2, §3, §4

[7] = tested on: serum lipoproteins (VLDL, LDL, HDL); assay: Serum cholesterol, lipoproteins and lipoprotein subfractions by NMR spectroscopy; conditions: for Serum HDL concentration / Serum LDL concentration / Serum VLDL concentration / Serum total Cholesterol concentration: after 4 months of supplementation, mean ± se
Procedure: At study end (4 mo), serum was analyzed for total cholesterol, lipoproteins (VLDL, LDL, HDL) as well as lipoprotein subfractions using NMR spectroscopy (Otvos, J. D., Clin Lab, 2002. 48: p. 171-180). The NMR method employs the characteristic methyl group signals broadcast by lipoprotein subclasses of different size as the basis for their quantification. Each measurement includes the concentrations of 5 subclasses of HDL (larger numbers denoting larger subclasses), 3 subclasses of LDL and 6 subclasses of VLDL (V1-V6). Lipoprotein subclasses were grouped into large, intermediate and small subclasses. That is, large, intermediate, and small HDL were H5+H4, H3, and H2+H1, respectively. Large, intermediate and small LDL were L3, L2, and L1, respectively. And large, intermediate and small VLDL were V6+V5, V4+V3, and V2+V1, respectively.
Results are expressed as mean ±SE. Within each group, each subject was followed longitudinally and significant differences from baseline were measured using Student's paired t-test (Systat version10, Port Richmond, Calif. Group differences were measured using ANOVA followed by the Bonferroni post hoc test (Systat10).

[8] = Baseline, before supplementation
[9] = Final, after 4 months of supplementation (DHA 800 mg/d and/or lutein 12 mg/d)
[10] = Final, after 4 months of supplementation

## CC/C=C\C/C=C\C/C=C\C/C=C\C/C=C\C/C=C\CCC(=O)O [DHA, cis-4,7,10,13,16,19-docosahexaenoic acid]
[1]; [8]
  Verbal Fluency: 15.0
[1]; [9]
  Verbal Fluency: 17.8
[2]; [8]
  Shopping List Memory Test Delayed Recall (max. 10): 9.0
  Shopping List Memory Test Trial 1 Items Recalled (max. 10): 7.2
  Shopping List Memory Test Trials to Learned List (max. 6): 3.1
[2]; [10]
  Shopping List Memory Test Delayed Recall (max. 10): 8.7
  Shopping List Memory Test Trial 1 Items Recalled (max. 10): 7.7
  Shopping List Memory Test Trials to Learned List (max. 6): 2.6
[3]; [8]
  Backward Digit Span Length: 5.4
  Backward Digit Span Total: 7.9
  Forward Digit Span Length: 6.6
  Forward Digit Span Total: 8.4
[3]; [10]
  Backward Digit Span Length: 5.8
  Backward Digit Span Total: 8.4
  Forward Digit Span Length: 6.7
  Forward Digit Span Total: 8.5
[4]; [8]
  Mood Scales Anger: 1.6
  Mood Scales Confusion: 1.7
  Mood Scales Depression: 1.7
  Mood Scales Fatigue: 2.1
  Mood Scales Tension: 2.0
[4]; [10]
  Mood Scales Anger: 1.6
  Mood Scales Confusion: 1.8
  Mood Scales Depression: 1.7
  Mood Scales Fatigue: 2.1
  Mood Scales Tension: 2.1
[5]; [8]
  Word List Memory Test Delayed Recall (max. 10): 8.1
  Word List Memory Test Trial 1 Items Recalled (max. 10): 6.3
  Word List Memory Test Trials to Learned List (max. 4): 3.0
[5]; [10]
  Word List Memory Test Delayed Recall (max. 10): 8.6
  Word List Memory Test Trial 1 Items Recalled (max. 10): 5.9
  Word List Memory Test Trials to Learned List (max. 4): 3.0
[6]; [8]
  Pattern Recognition Test Mean Response Time-Correct: 5.4 s
  Pattern Recognition Test Number Correct (max. 15): 14.6
[6]; [10]
  Pattern Recognition Test Mean Response Time-Correct: 5.0 s
  Pattern Recognition Test Number Correct (max. 15): 14.6
[7]
  Serum HDL concentration: 67 ± 3 mg cholesterol/dL
  Serum LDL concentration: 125 ± 5 mg cholesterol/dL
  Serum VLDL concentration: 78 ± 14 mg cholesterol/dL
  Serum total Cholesterol concentration: 209 ± 5 mg cholesterol/dL

## CC1=C[C@H](O)CC(C)(C)[C@H]1/C=C/C(C)=C/C=C/C(C)=C/C=C/C=C(C)/C=C/C=C(C)/C=C/C1=C(C)C[C@@H](O)CC1(C)C [Lutein, lutein]
[1]; [8]
  Verbal Fluency: 11.3
[1]; [9]
  Verbal Fluency: 15.5
[2]; [8]
  Shopping List Memory Test Delayed Recall (max. 10): 8.3
  Shopping List Memory Test Trial 1 Items Recalled (max. 10): 6.9
  Shopping List Memory Test Trials to Learned List (max. 6): 4.2
[2]; [10]
  Shopping List Memory Test Delayed Recall (max. 10): 7.6
  Shopping List Memory Test Trial 1 Items Recalled (max. 10): 6.5
  Shopping List Memory Test Trials to Learned List (max. 6): 3.9
[3]; [8]
  Backward Digit Span Length: 5.1
  Backward Digit Span Total: 7.5
  Forward Digit Span Length: 6.6
  Forward Digit Span Total: 8.1
[3]; [10]
  Backward Digit Span Length: 4.7
  Backward Digit Span Total: 6.9
  Forward Digit Span Length: 7.0
  Forward Digit Span Total: 8.7
[4]; [8]
  Mood Scales Anger: 1.4
  Mood Scales Confusion: 1.9
  Mood Scales Depression: 1.5
  Mood Scales Fatigue: 2.4
  Mood Scales Tension: 2.1
[4]; [10]
  Mood Scales Anger: 1.5
  Mood Scales Confusion: 2.4
  Mood Scales Depression: 1.8
  Mood Scales Fatigue: 2.9
  Mood Scales Tension: 2.4
[5]; [8]
  Word List Memory Test Delayed Recall (max. 10): 6.8
  Word List Memory Test Trial 1 Items Recalled (max. 10): 5.8
  Word List Memory Test Trials to Learned List (max. 4): 3.4
[5]; [10]
  Word List Memory Test Delayed Recall (max. 10): 7.6
  Word List Memory Test Trial 1 Items Recalled (max. 10): 5.8
  Word List Memory Test Trials to Learned List (max. 4): 3.5
[6]; [8]
  Pattern Recognition Test Mean Response Time-Correct: 6.1 s
  Pattern Recognition Test Number Correct (max. 15): 14.5
[6]; [10]
  Pattern Recognition Test Mean Response Time-Correct: 6.4 s
  Pattern Recognition Test Number Correct (max. 15): 14.3
[7]
  Serum HDL concentration: 70 ± 5 mg cholesterol/dL
  Serum LDL concentration: 113 ± 6 mg cholesterol/dL
  Serum VLDL concentration: 75 ± 12 mg cholesterol/dL
  Serum total Cholesterol concentration: 199 ± 8 mg cholesterol/dL
[7]; study end (4 mo)
  Intermediate HDL subclass, group comparison: significantly greater in the L group than in the LD group
